According to PubChem BioAssay (NCI):
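How tested: cells in 96-well plates exposed to compound for 48 hours at five concentrations. TGI marks complete inhibition of growth.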

These compounds were tested on EKVX NSCLC (assay: NCI-60 cell line screen, 48 h).

Row | Structure (SMILES) | TGI [µM]
1 | Cc1ccc(S(=O)(=O)OC2C3OC(C)(C)OC3OC2C(c2cc(O)c3c(c2O)C(=O)c2ccccc2C3=O)c2cc(O)c3c(c2O)C(=O)c2ccccc2C3=O)cc1 (stereo not given) | > 10
2 | N#Cc1nc(COCCOCc2ccccc2)oc1N | > 100
3 | CC/C(=N/O)c1ccc(Br)s1 | > 100
4 | O=C(CCc1ccc(O)cc1)NCCc1ccc(O)cc1 | > 100
5 | CCOC(=O)N/N=C(/N)Cc1ccccc1 | > 100
6 | CC(=O)NCc1nc(C#N)c(N)o1 | > 100
7 | O=P(O)(O)CN1CCN(CP(=O)(O)O)CCN(CP(=O)(O)O)CCN(CP(=O)(O)O)CC1 | > 100
8 | O=C1C(Br)=CC2(C=C1Br)CCN=c1c(O)c3c(c(O)c12)=NC=N3 | 32
9 | O=C1SCC(O)=C1/C=N/Nc1nc2ccccc2o1 | 96.1
10 | Clc1cccc(Cl)c1C1SCC2=Nc3ccccc3CN21 (stereo not given) | 73.6
11 | NC(N)=N/N=C/c1c(Cl)nc2sccn12 | > 100
12 | S=C1Cc2c([nH]c3ccccc23)-c2ccccc2N1 | > 100

Each compound was assayed on SK-OV-3 ovarian (assay: NCI-60 cell line screen, 48 h).

Row | Structure (SMILES) | TGI [µM]
13 | CC1=C2C3=C(C)C(=O)C(C)(C)CC[C@@]3(C)[C@]2(C)CCC(C)(C)C1=O | > 100
14 | Brc1ccc2c(-c3nc(-c4c[nH]c5ccc(Br)cc45)cs3)c[nH]c2c1 | 29.4
15 | COc1ccc(OC)c2c1C(=O)C(Cl)=C(N1CCN(CCOCCO)CC1)C2=O | 34
16 | CCC1c2[nH]c3ccccc3c2C[C@H]2C(=O)NC(CCC(=O)OC(C)(C)C)C(=O)N12 (stereo not given in full) | > 100
17 | CCOC(=O)NC(Nc1ccc(S(=O)(=O)Nc2ncccn2)cc1)(C(=O)OCC)C(F)(F)F (stereo not given) | > 100
18 | CCOC(=O)C(Cl)(NC(=O)c1ccc(F)cc1)C(F)(F)F (stereo not given) | > 100
19 | COc1ccccc1N1C(=O)/C(=C\c2cccc(Oc3ccccc3)c2)SC1c1ccccc1 (stereo not given) | > 100
20 | Cc1ccc(S(=O)(=O)OC2C3OC(C)(C)OC3OC2C(c2cc(O)c3c(c2O)C(=O)c2ccccc2C3=O)c2cc(O)c3c(c2O)C(=O)c2ccccc2C3=O)cc1 (stereo not given) | > 10
21 | N#Cc1nc(COCCOCc2ccccc2)oc1N | > 100
22 | CC/C(=N/O)c1ccc(Br)s1 | > 100
23 | O=C(CCc1ccc(O)cc1)NCCc1ccc(O)cc1 | > 100
24 | CCOC(=O)N/N=C(/N)Cc1ccccc1 | > 100
25 | CC(=O)NCc1nc(C#N)c(N)o1 | > 100
26 | O=C1C(Br)=CC2(C=C1Br)CCN=c1c(O)c3c(c(O)c12)=NC=N3 | 48.2
27 | O=C1SCC(O)=C1/C=N/Nc1nc2ccccc2o1 | 82.8
28 | Clc1cccc(Cl)c1C1SCC2=Nc3ccccc3CN21 (stereo not given) | 50.6
29 | NC(N)=N/N=C/c1c(Cl)nc2sccn12 | > 100
30 | S=C1Cc2c([nH]c3ccccc23)-c2ccccc2N1 | 64.4

The compounds below were run on 786-0 renal (assay: NCI-60 cell line screen, 48 h).

Row | Structure (SMILES) | TGI [µM]
31 | Cc1nc(N)c(N2CCNCC2)c(=O)[nH]1 | > 100
32 | CC1=C2C3=C(C)C(=O)C(C)(C)CC[C@@]3(C)[C@]2(C)CCC(C)(C)C1=O | > 100
33 | Brc1ccc2c(-c3nc(-c4c[nH]c5ccc(Br)cc45)cs3)c[nH]c2c1 | 6.33
34 | COc1ccc(OC)c2c1C(=O)C(Cl)=C(N1CCN(CCOCCO)CC1)C2=O | 13.3
35 | CCC1c2[nH]c3ccccc3c2C[C@H]2C(=O)NC(CCC(=O)OC(C)(C)C)C(=O)N12 (stereo not given in full) | > 100
36 | CCOC(=O)NC(Nc1ccc(S(=O)(=O)Nc2ncccn2)cc1)(C(=O)OCC)C(F)(F)F (stereo not given) | > 100
37 | CCOC(=O)C(Cl)(NC(=O)c1ccc(F)cc1)C(F)(F)F (stereo not given) | > 100
38 | COc1ccccc1N1C(=O)/C(=C\c2cccc(Oc3ccccc3)c2)SC1c1ccccc1 (stereo not given) | > 100
39 | Cc1ccc(S(=O)(=O)OC2C3OC(C)(C)OC3OC2C(c2cc(O)c3c(c2O)C(=O)c2ccccc2C3=O)c2cc(O)c3c(c2O)C(=O)c2ccccc2C3=O)cc1 (stereo not given) | > 10
40 | N#Cc1nc(COCCOCc2ccccc2)oc1N | > 100
41 | CC/C(=N/O)c1ccc(Br)s1 | > 100
42 | O=C(CCc1ccc(O)cc1)NCCc1ccc(O)cc1 | > 100
43 | CCOC(=O)N/N=C(/N)Cc1ccccc1 | > 100
44 | CC(=O)NCc1nc(C#N)c(N)o1 | > 100
45 | O=P(O)(O)CN1CCN(CP(=O)(O)O)CCN(CP(=O)(O)O)CCN(CP(=O)(O)O)CC1 | > 100
46 | O=C1C(Br)=CC2(C=C1Br)CCN=c1c(O)c3c(c(O)c12)=NC=N3 | 30
47 | O=C1SCC(O)=C1/C=N/Nc1nc2ccccc2o1 | > 100
48 | Clc1cccc(Cl)c1C1SCC2=Nc3ccccc3CN21 (stereo not given) | 32.4
49 | NC(N)=N/N=C/c1c(Cl)nc2sccn12 | 32.7
50 | S=C1Cc2c([nH]c3ccccc23)-c2ccccc2N1 | > 100

The compounds below were run on HS 578T breast (assay: NCI-60 cell line screen, 48 h).

Row | Structure (SMILES) | TGI [µM]
51 | Cc1nc(N)c(N2CCNCC2)c(=O)[nH]1 | > 100
52 | CC1=C2C3=C(C)C(=O)C(C)(C)CC[C@@]3(C)[C@]2(C)CCC(C)(C)C1=O | > 100
53 | Brc1ccc2c(-c3nc(-c4c[nH]c5ccc(Br)cc45)cs3)c[nH]c2c1 | > 52.9
54 | COc1ccc(OC)c2c1C(=O)C(Cl)=C(N1CCN(CCOCCO)CC1)C2=O | 38.2
55 | CCC1c2[nH]c3ccccc3c2C[C@H]2C(=O)NC(CCC(=O)OC(C)(C)C)C(=O)N12 (stereo not given in full) | > 100
56 | CCOC(=O)NC(Nc1ccc(S(=O)(=O)Nc2ncccn2)cc1)(C(=O)OCC)C(F)(F)F (stereo not given) | > 100
57 | CCOC(=O)C(Cl)(NC(=O)c1ccc(F)cc1)C(F)(F)F (stereo not given) | > 100
58 | COc1ccccc1N1C(=O)/C(=C\c2cccc(Oc3ccccc3)c2)SC1c1ccccc1 (stereo not given) | > 100
59 | Cc1ccc(S(=O)(=O)OC2C3OC(C)(C)OC3OC2C(c2cc(O)c3c(c2O)C(=O)c2ccccc2C3=O)c2cc(O)c3c(c2O)C(=O)c2ccccc2C3=O)cc1 (stereo not given) | > 10
60 | N#Cc1nc(COCCOCc2ccccc2)oc1N | > 100
61 | CC/C(=N/O)c1ccc(Br)s1 | > 100
62 | O=C(CCc1ccc(O)cc1)NCCc1ccc(O)cc1 | > 100
63 | CCOC(=O)N/N=C(/N)Cc1ccccc1 | > 100
64 | CC(=O)NCc1nc(C#N)c(N)o1 | > 100
65 | O=P(O)(O)CN1CCN(CP(=O)(O)O)CCN(CP(=O)(O)O)CCN(CP(=O)(O)O)CC1 | > 100
66 | O=C1C(Br)=CC2(C=C1Br)CCN=c1c(O)c3c(c(O)c12)=NC=N3 | 71.5
67 | O=C1SCC(O)=C1/C=N/Nc1nc2ccccc2o1 | > 100
68 | Clc1cccc(Cl)c1C1SCC2=Nc3ccccc3CN21 (stereo not given) | 62.2
69 | NC(N)=N/N=C/c1c(Cl)nc2sccn12 | 84.8
70 | S=C1Cc2c([nH]c3ccccc23)-c2ccccc2N1 | > 100

Each compound was assayed on MCF7 breast (assay: NCI-60 cell line screen, 48 h).

Row | Structure (SMILES) | TGI [µM]
71 | Cc1nc(N)c(N2CCNCC2)c(=O)[nH]1 | > 100
72 | CC1=C2C3=C(C)C(=O)C(C)(C)CC[C@@]3(C)[C@]2(C)CCC(C)(C)C1=O | > 100
73 | Brc1ccc2c(-c3nc(-c4c[nH]c5ccc(Br)cc45)cs3)c[nH]c2c1 | 13.9
74 | COc1ccc(OC)c2c1C(=O)C(Cl)=C(N1CCN(CCOCCO)CC1)C2=O | 15
75 | CCC1c2[nH]c3ccccc3c2C[C@H]2C(=O)NC(CCC(=O)OC(C)(C)C)C(=O)N12 (stereo not given in full) | > 100
76 | CCOC(=O)NC(Nc1ccc(S(=O)(=O)Nc2ncccn2)cc1)(C(=O)OCC)C(F)(F)F (stereo not given) | > 100
77 | CCOC(=O)C(Cl)(NC(=O)c1ccc(F)cc1)C(F)(F)F (stereo not given) | > 100
78 | COc1ccccc1N1C(=O)/C(=C\c2cccc(Oc3ccccc3)c2)SC1c1ccccc1 (stereo not given) | > 100
79 | Cc1ccc(S(=O)(=O)OC2C3OC(C)(C)OC3OC2C(c2cc(O)c3c(c2O)C(=O)c2ccccc2C3=O)c2cc(O)c3c(c2O)C(=O)c2ccccc2C3=O)cc1 (stereo not given) | > 10
80 | N#Cc1nc(COCCOCc2ccccc2)oc1N | > 100
81 | CC/C(=N/O)c1ccc(Br)s1 | > 100
82 | O=C(CCc1ccc(O)cc1)NCCc1ccc(O)cc1 | > 100
83 | CCOC(=O)N/N=C(/N)Cc1ccccc1 | > 100
84 | CC(=O)NCc1nc(C#N)c(N)o1 | > 100
85 | O=P(O)(O)CN1CCN(CP(=O)(O)O)CCN(CP(=O)(O)O)CCN(CP(=O)(O)O)CC1 | > 100
86 | O=C1C(Br)=CC2(C=C1Br)CCN=c1c(O)c3c(c(O)c12)=NC=N3 | 28.5
87 | O=C1SCC(O)=C1/C=N/Nc1nc2ccccc2o1 | > 100
88 | Clc1cccc(Cl)c1C1SCC2=Nc3ccccc3CN21 (stereo not given) | 52.7
89 | NC(N)=N/N=C/c1c(Cl)nc2sccn12 | 73.6
90 | S=C1Cc2c([nH]c3ccccc23)-c2ccccc2N1 | > 100
